Patent US20110039816A1, “THERAPEUTIC SUBSTANCE, PHARMACEUTICAL COMPOSITION, HELICOBACTER PYLORI GROWTH INHIBITOR AND METHOD FOR CONDUCTING ANTI-HELICOBACTER THERAPY” (priority 2007, published 2011)
“Also recorded” adds a separate entry of the source.

Test system: H. pylori
Test: Effect of comparator drugs and CGNC on the growth of H. pylori patient strains
Type: cell-based, Helicobacter pylori
Design: key to Effect on the growth of H. pylori: (+) - inhibition of growth; (−) - no inhibition of growth
Conditions: for Effect on growth of H. pylori: strains 782, 785, 786, 787
Description: The effect of the following doses of CGNC was examined: 50, 100, and 300 mg/ml. Bacteriological methods were used to conduct the study. Three doses of CGNC (50, 100 and 300 mg/ml) were used for analysis of the CGNC effect on the growth of H. pylori. Serial dilutions, of dense nutrient media containing an increasing concentration of the test substance were set up. Isolates of H. pylori inoculated on standard for this type of bacteria mediums (without CGNC) were used to control the microbial growth. The effect of the test substance was compared with the effect of the placebo (sterile saline solution—0.15 M NaCl, pH 7.0-7.2). In a comparative experiment, the effect of the antimicrobials, amoxicillin (20 μg/ml) and metronidazole (80 μg/ml), were evaluated.
Metronidazole and amoxicillin, the most common used therapeutical substances in combined anti-helicobacter therapy, were chosen as comparator-drugs. H. pylori isolated from patients (No. 782, 785, 786, 787), were used to compare the effect of CGNC (300 mg/ml), amoxicillin (20 μg/ml) and metronidazole (80 μg/ml) (Table 3). These strains were isolated from patients with chronic gastroduodenitis, gastritis associated with gastric stump, duodenal ulcer and reflux esophagitis.

Structure (SMILES): Cc1ncc([N+](=O)[O-])n1CCO [Metronidazole]
- Effect on growth of H. pylori (metronidazole 80 μg/ml): did not have an inhibiting effect; also recorded: did not inhibit the growth
- Effect on the growth of H. pylori (strain 782 (CGD), Metronidazole 80 μg/ml): −
- Effect on the growth of H. pylori (strain 785 (gastritis associated with gastric stump), Metronidazole 80 μg/ml): −
- Effect on the growth of H. pylori (strain 786 (DU, reflux esophagitis), Metronidazole 80 μg/ml): −
- Effect on the growth of H. pylori (strain 787 (CGD), Metronidazole 80 μg/ml): −

Structure (SMILES): CC1(C)S[C@@H]2[C@H](NC(=O)[C@H](N)c3ccc(O)cc3)C(=O)N2[C@H]1C(=O)O [Amoxicillin]
- Effect on growth of H. pylori (amoxicillin 20 μg/ml): inhibited the growth; also recorded: inhibition of growth occurred
- Effect on the growth of H. pylori (strain 782 (CGD), Amoxicillin 20 μg/ml): +
- Effect on the growth of H. pylori (strain 785 (gastritis associated with gastric stump), Amoxicillin 20 μg/ml): +
- Effect on the growth of H. pylori (strain 786 (DU, reflux esophagitis), Amoxicillin 20 μg/ml): +
- Effect on the growth of H. pylori (strain 787 (CGD), Amoxicillin 20 μg/ml): +
